Laboratory results taken from patent US20250255867A1 (Kadmon Corporation, LLC, priority 2022, published 2025).

Tests used:
Type in all cases: in vivo, human
patients with cGVHD = assay: Example 1 phase IIa dose-finding study: cGVHD response per 2014 NIH Consensus Criteria (ORR, BOR, DOR, TTR, organ response); conditions: for DOR Median (95% CI): responder population
Method: Eligible patients were allogeneic bone marrow transplant or allogeneic hematopoietic cell transplant (alloHCT) recipients of age ≥18 years with persistent cGVHD manifestations after having received one to three prior systemic lines of therapy and who were receiving corticosteroid treatment with or without a calcineurin inhibitor and/or concurrent extracorporeal photopheresis.
(FIG. 1) Before enrollment of the subsequent cohort, safety data in each previous cohort were analyzed after eight patients reached two months of treatment to assure that there was no safety signal. […] No safety concerns were identified, allowing for planned dose escalation.
Progression was defined per the 2014 NIH cGVHD Consensus Criteria. Long-term follow-up was conducted every 8 weeks until study closeout. […] Screening was conducted within 28 days of the first study dose. Response was initially assessed after two cycles; however, this was amended to evaluate response on day 1 of each cycle, starting at cycle 2 day 1.
All responses were assessed by the investigators.
Percentage of Participants With Overall Response (OR): OR was defined as the percentage of participants with complete response (CR) or partial response (PR). The OR determination of chronic graft versus host disease (cGVHD) was based on cGVHD response assessment performed by clinicians as per the 2014 National Institutes of Health (NIH) Consensus Development Project for Clinical Trials in cGVHD criteria. CR was defined as the resolution of all manifestations in each organ or site. PR was defined as the improvement in at least 1 organ or site without progression in any other organ or site; and cGVHD progression was defined as the clinically meaningful worsening in 1 or more organs regardless of improvement in other organs.
Duration of Response (DOR). The DOR was defined as the time (in weeks) from first documentation of response to the time of first documentation of deterioration from best response (e.g., CR to PR, or PR to […]). LOR included the response status of unchanged (LOR-U), mixed (LOR-M), or progression (LOR-P). […] Kaplan-Meier was used for the analysis.
Best Overall Response (BOR). BOR was defined as the participants with either a CR or PR or lack of response (LOR), where LOR included the response status of unchanged (LOR-U), mixed (LOR-M), or progression (LOR-P). BOR was assessed per the 2014 NIH Consensus Development Project for Clinical Trials in cGVHD criteria. […] Analysis was performed on mITT population.
Best Response in Each Individual Organ. Best response was defined as the percentage of participants with CR or PR. Response was assessed per the 2014 NIH Consensus Development Project for Clinical Trials in cGVHD criteria; CR was defined as the resolution of all manifestations in each organ or site; PR was defined as the improvement in at least 1 organ or site without progression in any other organ or site. Organ response assessment was performed on 9 individual organs: skin, eyes, mouth, esophagus, upper GI, lower GI, liver, lungs, and joints and fascia. […] Analysis was performed on mITT population. Here, ‘number analyzed’=participants with available data for each specified category.

subjects with cGVHD [1] = assay: Example 2: failure-free survival, overall survival, NRM, relapse; conditions: for FFS at 6 mo (95% CI) / FFS at 12 mo (95% CI): mITT population
Method: (§1) All responses were assessed by the study site investigators.

subjects with cGVHD [2] = assay: Example 2 phase II randomized study: cGVHD response per 2014 NIH Consensus Criteria (best ORR, organ ORR, DOR, time to response); conditions: for Best ORR: mITT
Method: as §1

[3] = Cohort 1 200 mg QD, 17 analyzed
[4] = Cohort 2 200 mg BID, 16 analyzed
[5] = Cohort 3 400 mg QD, 21 analyzed
[6] = 200 mg BID (n = 66), 42 with organ involved
[7] = 200 mg BID (n = 66), 49 with organ involved
[8] = 200 mg QD (n = 66), 19 with organ involved
[9] = 200 mg daily (n = 66), mITT population
[10] = 200 mg twice daily (n = 66), mITT population
[11] = Total (N = 132), 100 with organ involved
[12] = Total (N = 132), mITT population

## CC(C)NC(=O)COc1cccc(-c2nc(Nc3ccc4[nH]ncc4c3)c3ccccc3n2)c1 [Belumosudil, 2-{3-[4-(1H-indazol-5-ylamino)-2-quinazolinyl]phenoxy}-N-(propan-2-yl) acetamide]
Patients with cGVHD; Cohort 1 200 mg QD
  Best response (CR or PR) in skin, percentage of participants: (23%)
  Best response in esophagus, percentage of participants: (50%)
  Best response in joints and fascia, percentage of participants: (55%)
  ORR, % (95% CI): 65%
  ORR, refractory to previous LOT: 7/11 (64, 31 to %
  ORR, severe cGVHD: 8/12 (67, 35 to %
  ORR, ≤2 prior LOTs subgroup: 10/15 (67, 38 to %
  ORR, ≤4 organs involved: 4/8 (50, 16 to %
  DOR Median (95% CI): 40 (8-na* %) weeks
Patients with cGVHD; [3]
  BOR: CR: 0 participants
  BOR: LOR-P: 2 participants
  BOR: LOR-U: 2 participants
  BOR: PR: 11 participants
Patients with cGVHD; Cohort 1 200 mg QD, listed as KD025
  ORR, % (95% CI): 65 (38 to 86) %
Patients with cGVHD; Cohort 2 200 mg BID
  Best response (CR or PR) in skin, percentage of participants: (17%)
  Best response in liver, percentage of participants: (50%)
  ORR, % (95% CI): 69%
  ORR, refractory to previous LOT: 6/9 (67, 30 to %
  ORR, severe cGVHD: 9/14 (64, 35 to %
  ORR, ≤2 prior LOTs subgroup: 5/8 (63, 25 to %
  ORR, ≤4 organs involved: 8/10 (80, 44 to %
  DOR Median (95% CI): 11 (2-35%) weeks
Patients with cGVHD; [4]
  BOR: CR: 0 participants
  BOR: LOR-P: 1 participants
  BOR: LOR-U: 3 participants
  BOR: PR: 11 participants
Patients with cGVHD; Cohort 2 200 mg BID, listed as KD025
  ORR, % (95% CI): 69 (41 to 89) %
Patients with cGVHD; Cohort 3 400 mg QD
  ORR, % (95% CI): 57%
  ORR, refractory to previous LOT: 9/15 (60, 32 to %
  ORR, severe cGVHD: 8/16 (50, 25 to %
  ORR, ≤2 prior LOTs subgroup: 8/12 (67, 35 to %
  ORR, ≤4 organs involved: 7/9 (78, 40 to %
Patients with cGVHD; [5]
  BOR: CR: 0 participants
  BOR: LOR-M: 0 participants
  BOR: LOR-P: 1 participants
  BOR: LOR-U: 4 participants
  BOR: PR: 12 participants
Patients with cGVHD; Total
  ORR, refractory to previous LOT: 63%
  ORR, severe cGVHD: 60%
  ORR, ≤2 prior LOTs subgroup: 66%
  ORR, ≤4 organs involved: 70%
Patients with cGVHD; Total N=54, listed as KD025
  ORR, % (95% CI): 65 (51 to 77) %
Patients with cGVHD; Total, listed as KD025
  ORR, refractory to previous LOT: 22/35 (63, 45 to %
  ORR, severe cGVHD: 25/42 (60, 43 to %
  ORR, ≤2 prior LOTs subgroup: 23/35 (66, 48 to %
  ORR, ≤4 organs involved: 19/27 (70, 50 to %
Patients with cGVHD; pooled cohorts
  ORR among patients with nonsevere cGVHD: 83%
Subjects with cGVHD [1]; 200 mg daily (n = 66)
  FFS at 6 mo (95% CI): 73 (61-83) %
  FFS at 12 mo (95% CI): 57 (44-68) %
Subjects with cGVHD [1]; 200 mg twice daily (n = 66)
  FFS at 6 mo (95% CI): 76 (63-84) %
  FFS at 12 mo (95% CI): 56 (43-67) %
Subjects with cGVHD [1]; 95% CI, 47-64
  Overall FFS rate at 12 months: 56%
Subjects with cGVHD [1]; 95% CI, 66-81
  Overall FFS rate at 6 months: 75%
Subjects with cGVHD [1]; 95% CI, 82-93
  2-year OS rate: 89%
Subjects with cGVHD [1]; in vivo
  Failure event: initiation of a new systemic cGVHD therapy: 38%
  Relapse rate: 3%
Subjects with cGVHD [2]; 200 mg BID (n = 66), 4 with organ involved
  PR, Liver: 0 n (%)
Subjects with cGVHD [2]; 200 mg BID (n = 66), 10 with organ involved
  PR, Upper GI: 0 n (%)
Subjects with cGVHD [2]; 200 mg BID (n = 66), 12 with organ involved
  PR, Esophagus: 0 n (%)
Subjects with cGVHD [2]; [6]
  CR, Mouth: 17 (41) n (%)
  ORR, Mouth: 24 (57) n (%)
Subjects with cGVHD [2]; [7]
  CR, Eyes: 6 (12) n (%)
  ORR, Joints and fascia: 33 (67) n (%)
Subjects with cGVHD [2]; 200 mg BID (n = 66), 55 with organ involved
  PR, Skin: 13 (24) n (%)
Subjects with cGVHD [2]; 200 mg QD (n = 66), 6 with organ involved
  PR, Lower GI: 0 n (%)
Subjects with cGVHD [2]; 200 mg QD (n = 66), 13 with organ involved
  ORR, Upper GI: 8 (62) n (%)
Subjects with cGVHD [2]; [8]
  CR, Esophagus: 9 (47) n (%)
  PR, Esophagus: 0 n (%)
Subjects with cGVHD [2]; [9]
  CR, responses occurring within 6 mo of treatment: 2 (3) n (%)
  CR, responses occurring within 12 mo of treatment: 4 (6) n (%)
  ORR for responses occurring within 6 mo of treatment: 47 (71) n (%)
Subjects with cGVHD [2]; 200 mg daily
  Best ORR: 74%
Subjects with cGVHD [2]; [10]
  CR, responses occurring within 6 mo of treatment: 1 (2) n (%)
  CR, responses occurring within 12 mo of treatment: 2 (3) n (%)
  ORR: 51 (77) n (%)
  ORR for responses occurring within 12 mo of treatment: 50 (76) n (%)
  PR, responses occurring within 6 mo of treatment: 47 (71) n (%)
  PR, responses occurring within 12 mo of treatment: 48 (73) n (%)
Subjects with cGVHD [2]; 200 mg twice daily
  Best ORR: 77%
Subjects with cGVHD [2]; 3 subjects, range, 18-25
  Median increase in FEV1, lung CR based on normalization of FEV1: 23%
Subjects with cGVHD [2]; Total (N = 132), 31 with organ involved
  PR, Esophagus: 0 n (%)
Subjects with cGVHD [2]; Total (N = 132), 97 with organ involved
  CR, Eyes: 14 (14) n (%)
Subjects with cGVHD [2]; [11]
  CR, Joints and fascia: 20 (20) n (%)
  ORR, Joints and fascia: 71 (71) n (%)
  PR, Joints and fascia: 51 (51) n (%)
Subjects with cGVHD [2]; Total (N = 132), 110 with organ involved
  CR, Skin: 18 (16) n (%)
Subjects with cGVHD [2]; [12]
  CR, responses occurring within 6 mo of treatment: 3 (2) n (%)
  CR, responses occurring within 12 mo of treatment: 6 (5) n (%)
  PR, responses occurring within 6 mo of treatment: 92 (70) n (%)
  PR, responses occurring within 12 mo of treatment: 93 (71) n (%)
Subjects with cGVHD [2]; in vivo
  Best ORR in subjects refractory to their last lines of therapy: 75%
Subjects with cGVHD [2]; pooled arms, n=38
  ORR, prior ruxolitinib therapy subgroup: 68%
Subjects with cGVHD [2]; pooled arms, n=46
  ORR, prior ibrutinib therapy subgroup: 74%
Subjects with cGVHD [2]; range, 0-15
  Median increase in FEV1, all subjects achieving lung PR: 10%
Subjects with cGVHD [2]; range, 4-66
  Overall median time to response: 5 weeks
Subjects with cGVHD [2]; responder population
  Median DOR: 54 weeks
